According to patent US6368651B1, “Use of additives to modify the taste characteristics of N-neohexyl-α-aspartyl-L-phenylalanine methyl ester” (The NutraSweet Company, priority 1999, dated 2002):
Counter-ions that a name gives are not always drawn. Where a SMILES comes first, the peptide text is derived from it.

Legend:
[1] = Taste evaluation of solid tabletop sweetener in whitened, brewed coffee beverage; details: for effectiveness as taste modifying ingredient: tabletop sweetener in a whitened coffee beverage, concentration not given
Protocol: The following examples 51-78 are directed to solid tabletop sweetener preparations, specifically sachet or packet preparations, comprising mixtures of neotame, one or more taste modifying ingredients and a bulking agent. Taste evaluations were conducted on sweetened coffee or tea beverages prepared by dissolving the solid tabletop sweetener (total weight of 1.00 g) in a cup of brewed coffee or tea. The concentration of the ingredients in the tabletop sweetener is expressed as a percentage by weight, whereas the concentration of the ingredients in the beverage is expressed as parts per million (ppm) or parts per trillion (ppt). The beverages were prepared such that the concentration of neotame in sweetened, whitened coffee beverage was approximately 3-5 ppm and the concentration of neotame in sweetened tea was approximately 5-7 ppm.

[2] = Taste evaluation in neotame-sweetened cola-flavored beverage; details: for taste characteristic imparted by neotame / taste compared to neotame-sweetened cola-flavored beverage / taste of beverage across tested concentrations: cola; for effectiveness as taste modifying ingredient: test cola-beverage formulation, concentration not given
Protocol: When a neotame salt was used as a taste modifying/sweetening ingredient, the neotame salt as added in an amount sufficient to provide about 15 ppm to about 25 ppm neotame (e.g., about 0.0028 g of a potassium neotame salt would be used to provide 100 ml of a 25 ppm neotame solution). The taste modifying ingredient was dissolved in the sweetened beverage and the beverage was allowed to stand overnight at room temperature prior to evaluation. Evaluations of the cola-flavored beverages were conducted using a beverage containing water, sodium benzoate (0.16%), phosphoric acid (0.22%), citric acid (0.05%), trisodium citrate (0.08%), caffeine (0.03%), Flavor 28 (1.72%), sweetened with neotame in an amount of about 0.0015% to about 0.0025% (15 ppm to 25 ppm), adjusted to pH 3.2 using sodium citrate.

[3] = Taste evaluation in neotame-sweetened reconstituted powdered soft drink
[4] = Taste evaluation in neotame-sweetened hot cocoa beverage
[5] = on a weight basis; cited from earlier work
[6] = Taste evaluation in neotame-sweetened gelatin dessert; details: glycerin 8.4 ppm

beta cyclodextrin-neotame complex
taste characteristic imparted by neotame ([1]; beta cyclodextrin-neotame complex 1.409% by weight (beverage 58.7 ppm, neotame 3.3 ppm), Unidex): positively affected

OC[C@@H](O)[C@@H](O)CO [erythritol]
taste characteristic imparted by neotame ([2]; erythritol 200 ppm to 10,000 ppm): positively affected

neotame-phosphate salt
taste compared to neotame-sweetened cola-flavored beverage ([2]; neotame-phosphate salt as sweetener): improved taste

COc1cc(C=O)ccc1O [vanillin]
taste characteristic imparted by neotame ([3]; vanillin 0.5 ppm, reconstituted punch and lemonade-flavored soft drinks): positively affected

C[C@@H]1O[C@@H](O[C@H]2[C@H](Oc3cc(O)c4c(c3)O[C@H](c3ccc(O)cc3)CC4=O)O[C@H](CO)[C@@H](O)[C@@H]2O)[C@H](O)[C@H](O)[C@H]1O [naringin]
effectiveness as taste modifying ingredient [2]: ineffective

thaumatin
taste characteristic imparted by neotame ([1]; thaumatin 0.12% by weight (beverage 5.0 ppm), neotame 3.75 ppm, Unidex): positively affected

COc1ccc(CCC(=O)c2c(O)cc(O[C@@H]3O[C@H](CO)[C@@H](O)[C@H](O)[C@H]3O[C@@H]3O[C@@H](C)[C@H](O)[C@@H](O)[C@H]3O)cc2O)cc1O [neohesperidin dihydrochalcone]
taste characteristic imparted by neotame ([2]; NHDC 3 ppm): positively affected
taste characteristic imparted by neotame ([3]; neohesperidin dihydrochalcone 2 to 3 ppm, reconstituted punch or lemonade flavored powdered soft drinks): positively affected
taste characteristic imparted by neotame ([4]; neohesperidin dihydrochalcone 2 to 3 ppm): positively affected
taste characteristic imparted by neotame ([1]; neohesperidin dihydrochalcone 0.040% to 0.048% by weight (beverage 1.68 to 2.0 ppm), neotame 3.75 ppm, Unidex): positively affected

COC(=O)[C@H](Cc1ccccc1)NC(=O)[C@H](CC(=O)[O-])NCCC(C)(C)C.[Na+] [sodium-neotame salt]
taste characteristic imparted by neotame, compared to neotame-sweetened coffee beverage ([1]; sodium-neotame salt 0.09% by weight (beverage 3.75 ppm), Unidex): positively affected

COC(=O)[C@H](Cc1ccccc1)NC(=O)[C@H](CC(=O)[O-])NCCC(C)(C)C.COC(=O)[C@H](Cc1ccccc1)NC(=O)[C@H](CC(=O)[O-])NCCC(C)(C)C.[Ca+2] [calcium-neotame salt]
taste compared to neotame-sweetened cola-flavored beverage ([2]; calcium-neotame salt as sweetener): improved taste
taste characteristic imparted by neotame, compared to neotame-sweetened coffee beverage ([1]; calcium-neotame salt 0.056% by weight (beverage 2.33 ppm), Unidex): positively affected

polysorbate 80
taste characteristic imparted by neotame ([2]; polysorbate 80 10 to 15 ppm): positively affected
effectiveness as taste modifying ingredient [1]: effective

CCc1occc(=O)c1O [ethyl maltol]
taste characteristic imparted by neotame ([1]; ethyl maltol 0.0482% by weight (beverage 2 ppm), neotame 3.75 ppm, Unidex): positively affected

COC(=O)[C@H](Cc1ccccc1)NC(=O)[C@H](CC(=O)O)NCCC(C)(C)C [neotame, N-[N-(3,3-dimethylbutyl)-L-α-aspartyl]-L-phenylalanine 1-methyl ester]
sweetness relative to sucrose [5]: approximately 8,000 times as sweet as sucrose

polysorbate 60
taste characteristic imparted by neotame ([2]; polysorbate 60 10 to 15 ppm): positively affected
taste characteristic imparted by neotame ([1]; polysorbate 60 0.05% to 0.10% by weight (beverage 2.08 to 4.2 ppm), neotame 3.75 ppm, Unidex): positively affected
effectiveness as taste modifying ingredient [1]: effective

COC(=O)[C@H](Cc1ccccc1)NC(=O)[C@@H](N)CC(=O)O [aspartame] (H-Asp-Phe-OMe)
taste characteristic imparted by neotame ([2]; aspartame 20 to 40 ppm): positively affected
taste characteristic imparted by neotame ([3]; aspartame 100 to 160 ppm, reconstituted punch or lemonade-flavored powdered soft drink): positively affected
taste characteristic imparted by neotame ([4]; aspartame 100 ppm): positively affected
taste characteristic imparted by neotame ([1]; aspartame 0.6% to 1.25% by weight (beverage 25 to 52 ppm), neotame 3.75 ppm, Unidex bulking agent): positively affected

[Cl-].[K+] [potassium chloride]
effectiveness as taste modifying ingredient [2]: ineffective

C[C@@H](O)[C@H](N)C(=O)O [threonine]
taste characteristic imparted by neotame ([2]; threonine 5 ppm to 30 ppm): positively affected

OC[C@H]1O[C@@](CO)(O[C@H]2O[C@H](CO)[C@@H](O)[C@H](O)[C@H]2O)[C@@H](O)[C@@H]1O [sucrose]
taste characteristic imparted by neotame ([2]; sucrose 2000 ppm to 4000 ppm): positively affected

CC1=CC(=O)NS(=O)(=O)O1.COC(=O)C(Cc1ccccc1)NC(=O)C(CC(=O)O)NCCC(C)(C)C (centres unmarked) [acesulfame-neotame salt]
taste compared to neotame-sweetened cola-flavored beverage ([2]; acesulfame-neotame salt 40 ppm): improved taste

polysorbate 65
taste characteristic imparted by neotame ([2]; polysorbate 65 10 to 15 ppm): positively affected

OC[C@@H](O)[C@@H](O)[C@H](O)[C@@H](O)CO [sorbitol]
effectiveness as taste modifying ingredient [2]: ineffective

CC1=CC(=O)[N-]S(=O)(=O)O1.[K+] [acesulfame-K]
taste characteristic imparted by neotame ([2]; acesulfame-K 20 to 40 ppm, neotame 15-25 ppm): positively affected
taste characteristic imparted by neotame ([3]; acesulfame-K 40 to 100 ppm, reconstituted punch or lemonade-flavored powdered soft drink): positively affected
taste characteristic imparted by neotame ([4]; acesulfame-K 40 to 100 ppm): positively affected

COC(=O)[C@H](Cc1ccccc1)NC(=O)[C@H](CC(=O)[O-])NCCC(C)(C)C.[K+] [potassium-neotame salt]
taste compared to neotame-sweetened cola-flavored beverage ([2]; potassium-neotame salt as sweetener): improved taste
taste characteristic imparted by neotame, compared to neotame-sweetened coffee beverage ([1]; potassium-neotame salt 0.11% by weight (beverage 4.58 ppm), Unidex): positively affected

O=C1NS(=O)(=O)c2ccccc21 [saccharin]
taste characteristic imparted by neotame ([2]; saccharin 20 to 150 ppm): positively affected
taste of beverage across tested concentrations ([2]; saccharin 100 ppm): best tasting beverage
taste characteristic imparted by neotame ([3]; saccharin 20 to 40 ppm, reconstituted punch or lemonade-flavored powdered soft drink): positively affected
taste characteristic imparted by neotame ([4]; saccharin 20 to 40 ppm): positively affected
taste characteristic imparted by neotame ([1]; saccharin 1.32% by weight (beverage 5.5 ppm), neotame 3.75 ppm, Unidex): positively affected

[Cl-].[Na+] [sodium chloride]
taste characteristic imparted by neotame ([2]; sodium chloride 5 to 50 ppm): positively affected
taste of beverage across tested concentrations ([2]; sodium chloride 10 ppm): best tasting beverage

OC[C@@H](O)[C@@H](O)[C@H](O)[C@H](O)CO [mannitol]
taste characteristic imparted by neotame ([2]; mannitol 100 ppm to 2,000 ppm): positively affected

OC[C@@H](O)[C@H](O)[C@@H](O)CO [xylitol]
effectiveness as taste modifying ingredient [2]: ineffective

Cc1occc(=O)c1O [maltol]
taste characteristic imparted by neotame ([1]; maltol 0.035% by weight (beverage 1.44 ppm), neotame 3.75 ppm, Unidex): positively affected

CC1(C)[C@@H](O[C@H]2O[C@H](C(=O)O)[C@@H](O)[C@H](O)[C@H]2O[C@@H]2O[C@H](C(=O)O)[C@@H](O)[C@H](O)[C@H]2O)CC[C@]2(C)[C@H]3C(=O)C=C4[C@@H]5C[C@@](C)(C(=O)O)CC[C@]5(C)CC[C@@]4(C)[C@]3(C)CC[C@@H]12.N [monoammonium glycyrrhizinate]
taste characteristic imparted by neotame ([2]; monoammonium glycyrrhizinate 0.25 ppm): positively affected

Cn1c(=O)c2c(ncn2C)n(C)c1=O [caffeine]
taste characteristic imparted by neotame ([2]; caffeine 140 to 425 ppm): positively affected

Neotame-monopotassium phosphate
effectiveness as taste modifying ingredient [2]: ineffective

[Ca+2].[Cl-].[Cl-] [calcium chloride]
taste characteristic imparted by neotame ([1]; calcium chloride 0.072% by weight (beverage 3 ppm), neotame 3.75 ppm, Unidex): positively affected

neotame-monocalcium phosphate
effectiveness as taste modifying ingredient [2]: ineffective

N[C@@H](Cc1ccc(O)cc1)C(=O)O [L-tyrosine]
taste characteristic imparted by neotame ([2]; L-tyrosine 15 to 50 ppm): positively affected
taste characteristic imparted by neotame ([3]; tyrosine 35 ppm, reconstituted punch-flavored powdered soft drink): positively affected
taste characteristic imparted by neotame ([1]; L-tyrosine 0.288% by weight (beverage 12 ppm), neotame 3.75 ppm, Unidex): positively affected

COC1=C(C)OC(C)C1=O (centres unmarked) [Mesifuran]
effectiveness as taste modifying ingredient [2]: not an effective taste modifying ingredient

OCC(O)CO [glycerol]
taste characteristic imparted by neotame ([2]; glycerol 15 ppm to 2,000 ppm): positively affected
taste characteristic imparted by neotame ([3]; glycerin 4 to 35 ppm, reconstituted punch-flavored powdered soft drink): positively affected
taste characteristic imparted by neotame [6]: positively affected
taste characteristic imparted by neotame ([1]; glycerol 0.04% to 0.2% by weight (beverage 1.7 to 8.3 ppm), neotame 3.3 ppm, Unidex): positively affected

C=C[C@H]1C[N@@]2CC[C@H]1C[C@H]2[C@H](O)c1ccnc2ccc(OC)cc12 [quinine sulfate]
taste characteristic imparted by neotame ([2]; quinine sulfate 0.01 to 1 ppm): positively affected
